The term IC50 denotes the concentration at which inhibition is half-maximal.

This assay concerns the target human P2X3 receptor (Homo sapiens (Human), UniProt P56373). The experiment in a line: Evaluation of human P2X3 receptor inhibitory activity (Fluo-3 calcium fluorescence, FDSS 3000, ATP stimulation).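 Also: stimulus was 50 nM ATP with fluorescence followed for 3 min, and the response per well was peak post-ATP fluorescence divided by the reading at measurement start.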 In kind it is cell-based. The conditions noted are these: C6BU-1 cells stably expressing human P2X3 receptor.

Several values for one entry are separate records, joined by “and”; a condition that tells them apart may be missing. Identical values can stand only once.

human P2X3 receptor, sequence (P56373 whole entry): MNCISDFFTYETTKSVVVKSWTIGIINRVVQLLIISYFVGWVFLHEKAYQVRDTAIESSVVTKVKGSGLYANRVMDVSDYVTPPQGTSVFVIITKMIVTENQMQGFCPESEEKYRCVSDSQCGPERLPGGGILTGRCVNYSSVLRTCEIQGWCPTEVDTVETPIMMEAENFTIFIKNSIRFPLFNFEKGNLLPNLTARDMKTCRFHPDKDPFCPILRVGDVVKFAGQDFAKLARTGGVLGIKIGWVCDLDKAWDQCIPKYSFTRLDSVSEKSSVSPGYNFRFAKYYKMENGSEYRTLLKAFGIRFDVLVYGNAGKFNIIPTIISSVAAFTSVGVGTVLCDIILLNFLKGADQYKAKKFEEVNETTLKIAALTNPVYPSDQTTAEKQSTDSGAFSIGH

Regarding `CCn1c(=O)[nH]/c(=N\c2ccc(Oc3cncc(C(N)=O)c3)cc2)n(Cc2ccc(F)cc2)c1=O` [Compound I-2120], the IC50 came out at 33 nM.

`Cc1ccc(Cn2c(=O)n(C)c(=O)[nH]/c2=N\c2ccc(Oc3cncc(C(=O)O)c3)cc2)cc1` [Compound I-2121]: the IC50 is 21 nM.

Take `CC(C)Oc1ccc(/N=c2\[nH]c(=O)n(CCNCCO)c(=O)n2Cc2ccc(Cl)cc2)cc1F` [Compound I-2122]: the IC50 was determined as 93 nM.

Consider `CCOC(=O)CCCn1c(=O)[nH]/c(=N\c2ccc3nc(C)sc3c2)n(Cc2ccc(C)cc2)c1=O` [Compound I-2123], for which the IC50 amounted to 4 nM.

Consider `Cc1ccc(Cn2c(=O)n(CCCC(=O)O)c(=O)[nH]/c2=N\c2ccc3nc(C)sc3c2)cc1` [Compound I-2124], for which the IC50 came to 27 nM.

As for `CCn1c(=O)[nH]/c(=N\c2ccc(Oc3cncc(OC)n3)cc2)n(Cc2ccc(Cl)cc2)c1=O` [Compound I-2125], the IC50 amounted to 7 nM.

Consider `Cc1ccc(Cn2c(=O)n(CCC(=O)O)c(=O)[nH]/c2=N\c2ccc3c(ccc(=O)n3C)c2)cc1` [Compound I-2128], for which the IC50 is 287 nM.

As to `CCOc1ccc2cc(/N=c3\[nH]c(=O)n(CCC(=O)O)c(=O)n3Cc3ccc(C)cc3)ccc2c1` [Compound I-2130], the IC50 is 790 nM.

As to `Cc1ccc(Cn2c(=O)n(CCC(=O)O)c(=O)[nH]/c2=N\c2ccc3[nH]c(=O)sc3c2)cc1` [Compound I-2133], the IC50 worked out at 182 nM.

For `COc1ccc2cc(/N=c3\[nH]c(=O)n(CCC(=O)O)c(=O)n3Cc3ccc(C)cc3)ccc2n1` [Compound I-2137], the IC50 was 134 nM.

Turning to `CCn1c(=O)[nH]/c(=N\c2ccc(OC3CNC=C(C(=O)OC)C3)cc2)n(Cc2ccc(Cl)cc2)c1=O` (centres unmarked) [Compound I-2138], the IC50 came out at 171 nM.

For the compound `CCn1c(=O)[nH]/c(=N\c2ccc(Oc3cccc(NC(C)=O)c3)cc2)n(Cc2ccc(Cl)cc2)c1=O` [Compound I-2139], the IC50 turned out to be 22 nM.

As for `Cc1ccc(Cn2c(=O)[nH]c(=O)[nH]/c2=N\c2ccc(Oc3ccnc(C(=O)O)c3)cc2)cc1` [Compound I-2140], the half-inhibitory concentration (IC50) was 7 nM.

Take `O=C(O)c1cc(Oc2ccc(/N=c3\[nH]c(=O)[nH]c(=O)n3Cc3ccc(Cl)cc3)cc2F)ccn1` [Compound I-2141]: the IC50 was determined as 7 nM.

`COC(=O)CCCn1c(=O)[nH]/c(=N\c2ccc3nc(C)sc3c2)n(Cc2ccc(Cl)cc2)c1=O` [Compound I-2142]: the IC50 amounted to 6 nM.

Regarding `Cc1nc2ccc(/N=c3\[nH]c(=O)n(CCCC(=O)O)c(=O)n3Cc3ccc(Cl)cc3)cc2s1` [Compound I-2143], the 50% inhibitory concentration (IC50) was 23 nM.

On to `CCn1c(=O)[nH]/c(=N\c2ccc(Oc3cccc(C(N)=O)n3)cc2)n(Cc2ccc(Cl)cc2)c1=O` [Compound I-2145], for which the IC50 is 8 nM.

Regarding `CCOC(=O)c1sc(Oc2ccc(/N=c3\[nH]c(=O)n(CC)c(=O)n3Cc3ccc(Cl)cc3)cc2)nc1C` [Compound I-2147], the IC50 came out at 14 nM.

As for `CCOC(=O)c1cnc(Oc2ccc(/N=c3\[nH]c(=O)n(CC)c(=O)n3Cc3ccc(Cl)cc3)cc2)s1` [Compound I-2148], the IC50 worked out at 2 nM.

For the compound `CCOC(=O)Cc1c(C)oc2ccc(/N=c3\[nH]c(=O)n(CC)c(=O)n3Cc3ccc(Cl)cc3)cc12` [Compound I-2149], the IC50 stood at 791 nM.

On to `CCn1c(=O)[nH]/c(=N\c2ccc(Oc3ccc(C(=O)OC)o3)cc2)n(Cc2ccc(Cl)cc2)c1=O` [Compound I-2150], for which the IC50 amounted to 44 nM.

As for `CCn1c(=O)[nH]/c(=N\c2ccc(Oc3nc(C)c(C(=O)O)s3)cc2)n(Cc2ccc(Cl)cc2)c1=O` [Compound I-2151], the IC50 was determined as 12 nM.

Take `CCn1c(=O)[nH]/c(=N\c2ccc(Oc3ccc(C(=O)O)o3)cc2)n(Cc2ccc(Cl)cc2)c1=O` [Compound I-2152]: the IC50 came to 41 nM.

Take `CCn1c(=O)[nH]/c(=N\c2ccc(Oc3cncc(C(=O)OC)c3)cc2)n(Cc2ccc(Cl)cn2)c1=O` [Compound I-2154]: the IC50 is 133 nM.

With `COC(=O)CCCCn1c(=O)[nH]/c(=N\c2ccc3nc(C)sc3c2)n(Cc2ccc(C)cc2)c1=O` [Compound I-2155], the IC50 was 4 nM.

As for `CCc1nc2ccc(/N=c3\[nH]c(=O)n(CCCCC(=O)OC)c(=O)n3Cc3ccc(C)cc3)cc2s1` [Compound I-2156], the IC50 stood at 2 nM.

For `CCCn1c(=O)[nH]/c(=N\c2ccc(Oc3ccc(C(=O)OC)nc3)cc2)n(Cc2ccc(Cl)cc2)c1=O` [Compound I-2157], the IC50 came out at 1 nM.

For the compound `Cc1ccc(Cn2c(=O)n(CCCCC(=O)O)c(=O)[nH]/c2=N\c2ccc3nc(C)sc3c2)cc1` [Compound I-2158], the IC50 stood at 29 nM.

For the compound `CCc1nc2ccc(/N=c3\[nH]c(=O)n(CCCCC(=O)O)c(=O)n3Cc3ccc(C)cc3)cc2s1` [Compound I-2159], the IC50 is 47 nM.

For `CCCn1c(=O)[nH]/c(=N\c2ccc(Oc3ccnc(C(=O)OC)c3)cc2)n(Cc2ccc(Cl)cc2)c1=O` [Compound I-2160], the IC50 was determined as 3 nM.

For `CCCn1c(=O)[nH]/c(=N\c2ccc(Oc3ccc(C(=O)O)nc3)cc2)n(Cc2ccc(Cl)cc2)c1=O` [Compound I-2161], the IC50 was 14 nM.

As to `CCCn1c(=O)[nH]/c(=N\c2ccc(Oc3ccnc(C(=O)O)c3)cc2)n(Cc2ccc(Cl)cc2)c1=O` [Compound I-2162], the IC50 is 6 nM.

Regarding `Cc1nc2ccc(/N=c3\[nH]c(=O)n(CCNCCO)c(=O)n3Cc3ccc(Cl)cc3)cc2s1` [Compound I-2163], the IC50 is 54 nM.

For the compound `CCn1c(=O)[nH]/c(=N\c2ccc(Oc3cncc(C(=O)O)c3)cc2)n(Cc2ccc(Cl)cn2)c1=O` [Compound I-2164], the IC50 was 125 nM.

For the compound `CCn1c(=O)[nH]/c(=N\c2ccc(Oc3cc(C(N)=O)ccn3)cc2)n(Cc2ccc(Cl)cc2)c1=O` [Compound I-2165], the IC50 stood at 979 nM.

With `CCn1c(=O)[nH]/c(=N\c2ccc(Oc3ccnc(N)c3)cc2)n(Cc2ccc(Cl)cc2)c1=O` [Compound I-2166], the IC50 was found to be 10 nM.

For the compound `O=c1[nH]/c(=N\c2ccc3nc(C(F)(F)F)sc3c2)n(Cc2ccc(Cl)cc2)c(=O)n1CCO` [Compound I-2167], the IC50 amounted to 54 nM.

Take `O=c1[nH]/c(=N\c2ccc3nc(C(F)(F)F)sc3c2)n(Cc2ccc(Cl)cc2)c(=O)n1C[C@H](O)CO` [Compound I-2168]: the IC50 came to 57 nM.

`CCn1c(=O)[nH]/c(=N\c2ccc3oc(C)c(CC(=O)O)c3c2)n(Cc2ccc(Cl)cc2)c1=O` [Compound I-2170]: the IC50 worked out at 819 nM.

Consider `CCn1c(=O)[nH]/c(=N\c2ccc3oc(C)c(CCO)c3c2)n(Cc2ccc(Cl)cc2)c1=O` [Compound I-2171], for which the IC50 stood at 296 nM.

In the case of `CCn1c(=O)[nH]/c(=N\c2ccc(Oc3ccc([N+](=O)[O-])nc3)cc2)n(Cc2ccc(Cl)cc2)c1=O` [Compound I-2172], the IC50 was 1 nM.

As to `CCn1c(=O)[nH]/c(=N\c2ccc(Oc3cncc(C(=O)OC)c3)cc2)n(CC2CCC3(CC2)CC3)c1=O` [Compound I-2173], the IC50 was 12 nM.

For the compound `CCn1c(=O)[nH]/c(=N\c2ccc(Oc3ccnc(C(=O)OC)c3)cc2)n(CC2CCC3(CC2)CC3)c1=O` [Compound I-2174], the IC50 was 6 nM.

Regarding `CCn1c(=O)[nH]/c(=N\c2ccc(Oc3cncc(C(=O)O)c3)cc2)n(CC2CCC3(CC2)CC3)c1=O` [Compound I-2175], the IC50 was found to be 13 nM.

In the case of `CCn1c(=O)[nH]/c(=N\c2ccc(Oc3ccnc(C(N)=O)c3)cc2)n(CC2CCC3(CC2)CC3)c1=O` [Compound I-2176], the IC50 came out at 4 nM.

As to `CCn1c(=O)[nH]/c(=N\c2ccc(Oc3ccnc(C(=O)O)c3)cc2)n(CC2CCC3(CC2)CC3)c1=O` [Compound I-2177], the IC50 stood at 14 nM.

On to `CCn1c(=O)[nH]/c(=N\c2ccc(Oc3cncc(C(N)=O)c3)cc2)n(CC2CCC3(CC2)CC3)c1=O` [Compound I-2178], for which the IC50 was 5 nM.

On to `CCn1c(=O)[nH]/c(=N\c2ccc(Oc3cncc(C#N)c3)cc2)n(CC2CCC3(CC2)CC3)c1=O` [Compound I-2179], for which the IC50 stood at 3 nM.

Consider `CCn1c(=O)[nH]/c(=N\c2ccc(Oc3cccc(C(=O)OC)n3)cc2)n(Cc2ccc(C)cc2)c1=O` [Compound I-2180], for which the IC50 was 11 nM.

Turning to `CCn1c(=O)[nH]/c(=N\c2ccc(Oc3cccc(C(=O)O)n3)cc2)n(Cc2ccc(C)cc2)c1=O` [Compound I-2181], the concentration for half-maximal inhibition (IC50) was 4 nM.

For the compound `COC(=O)CCCCn1c(=O)[nH]/c(=N\c2ccc(OC(C)C)c(Cl)c2)n(Cc2ccc(Cl)cc2)c1=O` [Compound I-2182], the IC50 is 3 nM.

With `CCc1nc2ccc(/N=c3\[nH]c(=O)n(CCCCC(=O)OC)c(=O)n3Cc3ccc(Cl)cc3)cc2s1` [Compound I-2183], the IC50 was 1 nM.

Take `CC(C)Oc1ccc(/N=c2\[nH]c(=O)n(CCCCC(=O)O)c(=O)n2Cc2ccc(Cl)cc2)cc1Cl` [Compound I-2184]: the IC50 worked out at 10 nM.

For `CCc1nc2ccc(/N=c3\[nH]c(=O)n(CCCCC(=O)O)c(=O)n3Cc3ccc(Cl)cc3)cc2s1` [Compound I-2185], the IC50 was 15 nM.

Turning to `CCn1c(=O)[nH]/c(=N\c2ccc(Oc3ccnc(C(=O)OC)c3)cc2)n(Cc2ccc(Cl)cn2)c1=O` [Compound I-2186], the IC50 stood at 104 nM.

As for `CCOC(=O)c1cnc(Oc2ccc(/N=c3\[nH]c(=O)n(CC)c(=O)n3Cc3ccc(Cl)cc3)cc2)o1` [Compound I-2187], the IC50 came out at 44 nM.

In the case of `CCOC(=O)c1coc(Oc2ccc(/N=c3\[nH]c(=O)n(CC)c(=O)n3Cc3ccc(Cl)cc3)cc2)n1` [Compound I-2188], the IC50 was determined as 9 nM.

For the compound `CCn1c(=O)[nH]/c(=N\c2ccc(Oc3ncc(C(=O)O)o3)cc2)n(Cc2ccc(Cl)cc2)c1=O` [Compound I-2189], the IC50 was 47 nM and 51 nM.

As to `CCn1c(=O)[nH]/c(=N\c2ccc(Oc3nc(C(=O)O)co3)cc2)n(Cc2ccc(Cl)cc2)c1=O` [Compound I-2190], the IC50 came to 33 nM.

Consider `CCOC(=O)c1csc(Oc2ccc(/N=c3\[nH]c(=O)n(CC)c(=O)n3Cc3ccc(Cl)cc3)cc2)n1` [Compound I-2191], for which the IC50 was determined as 5 nM.

On to `CCOC(=O)c1cc(Oc2ccc(/N=c3\[nH]c(=O)n(CC)c(=O)n3Cc3ccc(Cl)cc3)cc2)[nH]n1` [Compound I-2192], for which the IC50 was 8 nM.

For the compound `CCn1c(=O)[nH]/c(=N\c2ccc(Oc3nc(C(=O)O)cs3)cc2)n(Cc2ccc(Cl)cc2)c1=O` [Compound I-2193], the IC50 came out at 6 nM.

(Values after patent US9718790B2, “Triazine derivative and pharmaceutical composition having an analgesic activity comprising the same” (SHIONOGI & CO., LTD., priority 2010, dated 2017).)
